Data reported in ChEMBL document CHEMBL1136403, “Synthesis and biological evaluation of some novel 4'-thio-L-ribonucleosides with modified nucleobase moieties” (Bioorg Med Chem Lett, 2003).

Experiments:
HeLa = experiment: In vitro cytotoxicity against HeLa human cervical carcinoma cell line; type: functional, cell-based
C6 = experiment: In vitro cytotoxicity against C6 rat glioma cell line; type: functional, cell-based
NHDF = experiment: In vitro cytotoxicity against normal human dermal fibroblast (NHDF) cell line; type: functional, cell-based
U-87 MG = experiment: In vitro cytotoxicity against HTB14 human glioma cell line; type: functional, cell-based, U-87MG ATCC
NB-4 [1] = experiment: In vitro cytotoxicity against NB4 leukemia cell line; type: functional, cell-based; details: Homo sapiens
T47D [2] = experiment: In vitro cytotoxicity against T47D breast cancer cell line; type: functional, cell-based; details: Homo sapiens
T47D [3] = experiment: Growth stimulating activity against T47D breast cancer cell line; growth stimulatory activity is observed.; type: functional, cell-based, Homo sapiens
NB-4 [4] = experiment: Growth stimulating activity against NB4 leukemia cell line; growth stimulatory activity is observed.; type: functional, cell-based, Homo sapiens

IC50 (T47D [3]) | Structure (SMILES) | IC50 (HeLa) [µM] | IC50 (C6) [µM] | IC50 (NHDF) [µM] | IC50 (U-87 MG) [µM] | IC50 (NB-4 [1]) [µM] | IC50 (T47D [2]) [µM] | IC50 (NB-4 [4])
 | Cc1cn([C@H]2S[C@@H](CO)[C@H](O)[C@@H]2O)c(=O)[nH]c1=O | 100 | > 100 | > 100 | 67.8 | > 100 | > 100 | 
Growth-stimulatory activity | Nc1nc(S)c2ncn([C@H]3S[C@@H](CO)[C@H](O)[C@@H]3O)c2n1 | > 100 | > 100 | > 100 | 62.1 | > 100 |  | 
 | O=c1[nH]c(=O)n([C@H]2S[C@@H](CO)[C@H](O)[C@@H]2O)cc1F | > 100 | > 100 | > 100 | 41.5 | > 100 | > 100 | 
Growth-stimulatory activity | Nc1nc(=O)n([C@H]2S[C@@H](CO)[C@H](O)[C@@H]2O)cc1F | 95.9 | > 100 | > 100 | 83.3 |  |  | Growth-stimulatory activity
